# Laboratory results reported in patent US9682151B2, “Peptides whose uptake in cells is controllable” (The Regents of the University of California, priority 2009, dated 2017).
# Like-named read-outs stand apart in the source and are kept apart here.
# Assays:
# [1] = mouse, in vivo
# Experimental: Peptides conjugated to 5 kD PEG and 12 kD PEG were injected into nude mice bearing HT-1080 xenografts at a dose of 6 nmoles per animal (FIG. 24). […] As controls, a scrambled version of the PLGLAG (SEQ ID NO: 1) cleavable sequence denoted as LALGPG (SEQ ID NO: 48) and a d-amino acid version of the PLGLAG (SEQ ID NO: 1) sequence denoted as plglag were also injected. […] Because of what was what was available at the time, the polyoma transgenic mice were tested in wildtype and iNOS−/− backgrounds.
# As the last molecule in the large molecular weight carrier series, 1725 was a fifth generation PAMAM dendrimer conjugated to two MMP cleavable selective transport molecules. The remaining 126 attachment sites were capped with succinyl groups. […] This molecule was injected into both HT-1080 tumor bearing nude transgenic PyMT mice at varying concentrations.
# HT1080 tumor = assay: Doxorubicin conjugated dendrimers in HT1080 tumor bearing mice; type: in vivo; details: single dose
# Experimental: In multiple experiments, HT1080 bearing nude mice were injected with a single specific dose of doxorubicin dendrimer. […] Mouse weights and tumor volumes were measured regularly. For the urea and the Peg hydrazone dendrimers, mice were imaged spectrally 7 days after injection. Using the Maestro (CRI) spectral deconvolution system and software, doxorubicin fluorescence (red) was separated out from autofluorescence (green). Tumors were removed and imaged by spectral deconvolution and brightfield. For aromatic and thioether dendrimers there were 4 mice for each treatment group but only 2 mice for the urea and Peg hydrazone dendrimers because of limited dendrimer synthesis yields.
# [2] = Stability of pDox by analytical HPLC and mass spectra; type: physicochemical
# Experimental: pDox dendrimers were synthesized with the intent to coat the dendrimers with one pDox and three Cy5s thus making the dendrimers brightly fluorescent in the far-red. The pDox dendrimer samples that were incubated overnight in pH 7.4 and pH 5 buffer as described previously were injected on HPLC/mass spec. HPLC was run using 30-60% Acetonitrile in water with 0.5% TFA gradient on a reverse phased column. Doxorubicin (470-490) and Cy5 (645-655) absorbance peaks were monitored to reveal a new doxorubicin peak in the pH 5 sample. This peak was proven to be free pDox based upon the mass spec. For quantitation, dendrimers were run on another HPLC using a different C18 reverse phase column with a 10-90% ACN gradient column with 0.14% TFA which has a fluorescence detector. […] To quantify the amount of pDox that was hydrolyzed off the dendrimer, 200 pmols of sample was injected and compared to a standard curve of 12, 36, and 60 pmols of pDox alone.
# pDox was synthesized and reacted with the dendrimer via hydrazone linker as done with doxorubicin dendrimers discussed earlier. […] The labeling was so low that the absorbance was undetectable by UV Spectroscopy. It was only by fluorescence spectra measured on a plate reader that it was clear pDox was conjugated to the dendrimers but this was not able to be quantified. […]
# HT1080 bearing mice = assay: Maximum tolerated dose of pDox
# [3] = tested on: HT1080 human fibrosarcoma; details: for toxicity: 44 μmol/kg
# Experimental: A selective transport molecule-Podophyllotoxin (selective transport molecule-podo) conjugate by reacting podo-ss-pyridine with Suc-e8-xPLGLAG-r9-c, purified by HPLC and confirmed by mass spectrometry. The peptide was stored as a TFA salt and the yield was determined by mass. For animal experiments, athymic nude mice were injected with 1×0^6HT1080 human fibrosarcoma cells in the mammary fat pad. After one week when tumors were 30-50 mm^3 mice were injected IP once every other day for a total of three times with 10 μmol/kg of either podophyllotoxin, selective transport molecule alone, or selective transport molecule-podo.
# (§1) Therefore we synthesized Suc-e8-xPLGLAG-r9-c(ss-podophyllotoxin) to test in cell culture. […] In order to decide upon a starting dose, we tested podophyllotoxin by itself to determine the effective dose for shrinking tumors.
# Three mice in each treatment group were injected with 3 doses, one dose every other day.
# [4] = tested on: HT1080 human fibrosarcoma; details: 48-100 μmol/kg after multiple doses; cited from earlier work
# 4T1.2 tumor = assay: Plasma pre-reaction of maleimide peptide, blood levels and tumor fluorescence; type: in vivo, mice; details: 48 hours
# Experimental: (§2) Nude mice were injected with 2×^06HT1080 human fibrosarcoma cells in the left #2 mammary fat pad. Experiments were performed 5-7 days post injection. Polyoma Middle T mice (PyMT) were provided by Lesley Ellies and they were injected with peptide IV between 9-12 wks of age when medium to large sized tumors were present in each mammary fat pad. One million mouse mammary adenocarcinoma 4T1.2 cells (from Robyn Anderson, University of Melbourne) were injected into the left mammary fat pad of nude mice (FIGS. 4 and 7) and Balb/c mice (FIGS. 8 and 9) and 5-20 days later were injected with peptide and imaged.
# (§3) When tumors were of sufficient size 5-20 days after injection of tumor cells the peptide was injected IV and imaged on the Maestro small animal imager (CRI). Animals were sacrificed by overdose with Isoflurane and dissected. To examine lung metastases, the lungs were inflated with OCT cryoprotectant and imaged on the small animal imager. Blood measurements were taken by bleeding the tail vein at a specified time point and collected in a capillary tube. The tubes were then imaged for presence of the Cy5 fluorescent peptide using the small animal imager. For processing of tissues for gels, 30 mg of tissue was homogenized in a 1% SDS Tris buffer then heated at 80° C. for 10 min and centrifuged. The supernatant was then diluted 1:10 and run on a tricine gel and imaged by fluorescence. […]
# [5] = tested on: HT-1080 tumor bearing nude / transgenic PyMT mice; details: mouse, in vivo
# Experimental: Animals expressing the polyoma middle T transgene (PyMT) driven by the MMTV promoter were obtained from Lesley Ellies. Nude animals bearing HT-1080 xenografts were either generated in house or were obtained from Explora Biosciences. Either way, tumors were used once they reached a diameter of […]. Animals were anesthetized with ketamine/midazolam (80 mg/kg, 40 mg/kg) and injected with the indicated construct through the tail vein Animals were typically observed throughout the first hour as they woke up from anesthesia. They were re-anesthetized and imaged at six hours, 12 hours, 24 hours and 48 hours as needed. After the last imaging session, animals were sacrificed by overdose of halothane. The imaging system used evolved over time. For most of the PEGylated conjugates, a simple light box was used, though the image shown is one of the first taken with the Maestro spectral deconvolution imager. The albumin, dextran and PAMAM dendrimer conjugates were tested using a 620/20 excitation filter and collecting images at 680 nm. The streptavidin conjugates were tested using a 640/48 excitation filter, with images collected at 700 nm.
# Standardized Uptake Values were initially measured without tissue specific calibrations and were later re-adjusted to take tissue specificity and a light source change into account. […]
# [6] = tested on: HT1080 human fibrosarcoma; assay: Optical imaging of albumin reactive peptides in HT1080 tumor bearing mice; type: in vivo; details: 3 nmols IV, 24 hours
# Experimental: as §2, §3
# cells = assay: Toxicity of podophyllotoxin conjugate in cell culture; type: cell-based
# Description: as §1
# recombinant MMP-9 = molecular target: T1, recombinant MMP-9 (Homo sapiens, UniProt P14780); assay: Enzyme cleavage assay of albumin reacted maleimide peptide; type: biochemical; details: 50 nM MMP-9
# T1 construct: purchased EMD Biosciences
# Experimental: (§4) Maleimide peptides were initially reacted with mouse serum albumin (Sigma) at 40 mg/mL or fresh frozen mouse plasma for one hour. Samples were run on a tricine buffered 10-20% polyacrylamide gel and imaged for Cy5 fluorescence on a UVP gel imager. For the enzyme cleavage assay, Cy5-monomaleimide and the cleavable maleimide peptides were reacted as 2 nmol with mouse serum albumin at 40 mg/mL in 25 mM hepes buffer. The stock was then diluted 1:[…] with 50 nM of recombinant MMP-9 (EMD Biosciences) and digested for 20 minutes and 4 hours then run on a tricine gel and imaged by Cy5.
# (§5) Malemide selective transport molecule was reacted mouse serum albumin and plasma in aqueous conditions to determine that peptide reacts with albumin in a test tube. […] Plasma seemed to give somewhat more complete reaction.
# mouse serum albumin = molecular target: T2, mouse serum albumin (Mus musculus, UniProt P07724); assay: Reaction of maleimide peptide with albumin; details: within an hour of mixing, PAGE
# T2 construct: Albumin reactive selective transport molecules create a robust reaction with native albumin; purchased Sigma
# Experimental: as §4, §5
# [7] = 10 μmol/kg IP, 3 doses, one every other day
# T2 sequence (P07724 25-608): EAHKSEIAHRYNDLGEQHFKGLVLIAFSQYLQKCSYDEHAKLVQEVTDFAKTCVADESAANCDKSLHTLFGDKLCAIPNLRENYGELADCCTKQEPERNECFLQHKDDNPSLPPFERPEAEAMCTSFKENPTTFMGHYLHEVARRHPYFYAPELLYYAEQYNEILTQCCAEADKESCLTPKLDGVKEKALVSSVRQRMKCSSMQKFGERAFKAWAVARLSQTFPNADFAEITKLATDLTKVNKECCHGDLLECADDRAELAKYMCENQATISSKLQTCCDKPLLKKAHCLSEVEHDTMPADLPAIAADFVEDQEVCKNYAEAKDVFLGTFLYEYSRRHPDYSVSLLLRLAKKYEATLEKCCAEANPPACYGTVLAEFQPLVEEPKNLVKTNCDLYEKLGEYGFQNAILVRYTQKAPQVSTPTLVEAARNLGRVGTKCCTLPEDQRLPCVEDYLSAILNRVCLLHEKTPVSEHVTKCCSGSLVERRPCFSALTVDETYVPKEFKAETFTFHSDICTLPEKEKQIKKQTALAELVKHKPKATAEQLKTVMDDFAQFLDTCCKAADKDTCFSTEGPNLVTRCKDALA
# T1 sequence (P14780 94-707, species assumed): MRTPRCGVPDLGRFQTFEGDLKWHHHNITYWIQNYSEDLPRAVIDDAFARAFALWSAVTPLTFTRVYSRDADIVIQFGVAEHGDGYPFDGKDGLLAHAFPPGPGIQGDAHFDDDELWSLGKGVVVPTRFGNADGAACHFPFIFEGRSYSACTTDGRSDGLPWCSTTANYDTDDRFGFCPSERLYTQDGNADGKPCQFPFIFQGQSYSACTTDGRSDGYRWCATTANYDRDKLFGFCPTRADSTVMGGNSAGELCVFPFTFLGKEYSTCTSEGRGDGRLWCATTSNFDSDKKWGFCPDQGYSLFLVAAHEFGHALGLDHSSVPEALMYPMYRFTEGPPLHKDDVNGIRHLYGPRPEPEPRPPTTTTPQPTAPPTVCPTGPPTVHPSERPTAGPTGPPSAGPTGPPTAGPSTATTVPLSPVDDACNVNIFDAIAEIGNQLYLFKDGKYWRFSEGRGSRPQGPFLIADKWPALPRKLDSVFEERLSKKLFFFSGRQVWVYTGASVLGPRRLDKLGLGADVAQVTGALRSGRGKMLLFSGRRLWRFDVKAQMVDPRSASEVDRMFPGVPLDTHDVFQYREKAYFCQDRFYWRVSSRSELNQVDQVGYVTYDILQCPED
compound,measurement,setting,value
12kD-PEG-e9-XPLGLAG-r9-k(cy5),Approx Plasma Halflife,[1],~20 m
same,blood halflife,[1],approximately 20 minutes
COc1cccc2c1C(=O)c1c(O)c3c(c(O)c1C2=O)C[C@@](O)(C(=O)CO)C[C@@H]3O[C@H]1C[C@H](N)[C@H](O)[C@H](C)O1 [doxorubicin],anti-tumor activity (qualitative),HT1080 tumor,continually beat the dendrimers in anti-tumor activity
"COc1cccc2c1C(=O)c1c(O)c3c(c(O)c1C2=O)C[C@@](O)(C(=O)CO)C[C@@H]3O[C@H]1C[C@H](N2C=CCC2)[C@H](O)[C@H](C)O1 [pDox, 2-pyrrolino doxorubicin]",stability,[2],severe stability problems
same,effect on tumor growth,HT1080 bearing mice; 0.1 mg/kg,significantly slowed tumor growth
same,lethality,"HT1080 bearing mice; 0.3 and 1 mg/kg, two mice each",died within 24 hours
same,maximum tolerated dose,HT1080 bearing mice; HT1080 bearing mice,0.1 mg/kg
"COc1cc([C@@H]2c3cc4c(cc3[C@H](O)[C@H]3COC(=O)[C@H]23)OCO4)cc(OC)c1OC [podophyllotoxin, reference compound]",effect on tumor growth,[3]; [7],not efficacious
same,effect on tumor growth,"[3]; 10 μmol/kg IP, 3 doses, one every other day, listed as Podo",no therapeutic activity or toxicity
same,toxicity,[3],no obvious signs of toxicity
same,effect on tumor growth,[3]; 3 injections at 44 μmol/kg every other day,sufficient to significantly slow tumor growth but not provide a cure
same,toxicity (literature),[4],minimal toxicity
Cy5-monomaleimide,tumor fluorescence / uptake,4T1.2 tumor,significantly less fluorescence
G5-PAMAM-[e9-XPLGLAX-r9-k(cy5)]2[PEG]126,Approx Plasma Halflife,[1],~20 h
same,blood halflife,[1],over 10 hours
G5PAMAM-[e9-OPLG(MeC)AG-r9-k(cy5)][PEG]127],liver uptake relative to PLGLAX dendrimer,[5],decrease by a factor of two
G5PAMAM-[e9-XPLGLAG-r9-k(cy5)][PEG]127 [G5PAMAM-[e9-XPLGLAG-r9-k(cy5)] [PEG]127],tumor uptake relative to PLGLAX dendrimer,[5],decreased tumor uptake
Generation 5 PAMAM-(e9-XPLGLAX-r9-k(cy5))2(succ)126,"blood halflife, first phase (biphasic)",[1],under 10 minutes
same,"blood halflife, second phase (biphasic)",[1],10 to 15 h
Streptavidin-[e9-XPLGLAG-r9-k(cy5)]4,Approx Plasma Halflife,[1],~4 h
Suc-e8-xPLGLAG-r9-c(Cy5),tumor uptake (Cy5 fluorescence),[6],difficult to detect
Suc-e8-xPLGLAG-r9-c(ss-podophyllotoxin) [selective transport molecule-podo],body weight,"[3]; 10 μmol/kg IP, 3 doses",lost significant weight
same,effect on tumor growth,[3]; [7],modest slowing of growth
same,toxicity,[3],acutely toxic
same,toxicity on cells,cells,submicromolar toxicity
mal-e9-oPLG(Cme)AG-r9-c(cy5),time to near complete cleavage off albumin,recombinant MMP-9,less than 4 hours
same,reaction with mouse serum albumin or plasma,mouse serum albumin,most of the peptide reacted with MSA or plasma albumin
same,tumor uptake (Cy5 fluorescence),[6],much greater with the cleavable peptide compared to the uncleavable peptide
